Assay results as given in patent US20230348493A1, “COMPOUND FOR ADJUSTING ACTIVITY OF NMDA RECEPTOR, AND PHARMACEUTICAL COMPOSITION AND USE THEREOF” (BEIJING GREATWAY PHARMACEUTICAL TECHNOLOGY CO., LTD., priority 2020, published 2023).
Read-outs that look alike come from different tables or passages of the source. Blank lines part the entries; values can stand above or below the molecule they belong to.

Legend:
[1] = biological target: T1, NMDA receptor (Rattus norvegicus, UniProt P35439); assay: Inhibition of [3H]-MK-801 binding to rat crude synaptosomes (receptor ligand binding assay); details: affinity on NMDA; [3H]-MK-801 10 nM, rat prefrontal cortex and hippocampus crude synaptosomes; read-out: IC50
T1 construct: After the rats were decapitated, the prefrontal cortex and hippocampus were rapidly separated on ice; from tissue; host or cells: SD male rat prefrontal cortex and hippocampus, crude synaptosomes
Protocol: The affinity of the tested compounds on NMDA receptor was researched by receptor ligand binding assays.
Ten SD male rats of SPF grade were ordered and acclimated for 7 days for future use.
(§1) After the rats were decapitated, the prefrontal cortex and hippocampus were rapidly separated on ice and weighed, 10 volumes of 50 mM Tris-HCl buffer (50 mM Tris-HCl, 5 mM MgCl2·6H2O, 1 mM EDTA, 0.5% (W/V) BSA, 1 mM PMSF, 0.32 M sucrose, pH 7.4) was added, and the mixture was homogenized for five times at 1500 revolutions/min with 30 s each time. A homogenate was centrifuged for 10 min at 1000×g, and a supernatant was taken and centrifuged for 10 min at 40,000×g, the precipitates were collected, re-suspended with volumes of Tris-HCl buffer, incubated at 37° C. for 10 min, and centrifuged for 10 min at 40,000×g, finally the precipitates were re-suspended with the above buffer, aliquoted and stored at −80° C. for later use.
(2) Detection of Inhibitory Function of Tested Medicines on Binding of Crude Synaptosomes in Rats to [^3H]-MK-801
50 μg of rat crude synaptosomal proteins was added to all tubes respectively. A volume of 50 μl of MK-801 (dizocilpine) was added to a non-specific binding tube to achieve a final concentration of 100 μM, and the materials were reacted for 15 min in advance. 20 μL of control drug at corresponding concentration was added to the test tube for reaction for 15 min. A volume of 30 μl of labeled ligand [^3H]-MK-801 was successively added to all tubes to achieve a final concentration of 10 nM. All reaction tubes were supplemented to a volume of 200 μl with 50 mM Tris-HCl buffer (50 mM Tris-HCl, 5 mM MgCl2·6H2O, 1 mM EDTA, 0.5% (WN) BSA, 0.1% NaN3, pH 7.4). A reaction was carried out at 37° C. for 10 min. A type-49 glass fiber filter membrane was prepared and a sample was applied at the same time. The filter membrane was placed in a multi-head cell collector, and a reaction system was subjected to suction filtration under negative pressure and washed with an ice-cold 50 mM Tris-HCl buffer, 10 ml each time, for a total of 5 times. After suction drying, 1 ml of scintillation liquid was added to the filter membrane, the filter membrane was placed on a shaker for shaking for 1.5 h and then placed in a liquid scintillation counter on the next day to determine the radioactive intensity.
GraphPad5.0 software was used to analyze the data, and the percentage of competitive inhibition was calculated through nonlinear fitting, wherein:
Percentage of competitive inhibition %=((total binding tube cpm−compound cpm)/(total binding tube cpm−non-specific binding tube cpm))×100%;
Specific binding amount=total binding amount−non-specific binding amount, wherein each binding site was determined by double compound tubes.

[2] = biological target: T1, NMDA receptor; assay: NMDA receptor agonistic properties in rat crude synaptosomal proteins (maximum [3H]-MK-801 binding vs 1 mM glycine); type: biochemical; details: maximum [3H]-MK-801 binding % relative to 1 mM glycine; 50 μM glutamic acid
Protocol: as §1
(3) Detection of Influence of Tested Medicines on NMDA Receptor Agonistic Properties in Rat Crude Synaptosomal Proteins
100 μg of rat crude synaptosomal proteins was added to all tubes respectively. 50 μl of 5,7-dichlorokynurenic acid was added to a non-specific binding tube to achieve a final concentration of 10 μM. All tubes were preloaded with 50 μM of glutamic acid, and the materials were reacted for 15 min in advance. 20 μL of control drug at corresponding concentration was added to the test tube, and then reacted for 15 min. 1 mM glycine was added to the maximum reaction tube. A volume of 30 μl of labeled ligand [^3H]-MK-801 was successively added to all tubes to achieve a final concentration of 10 nM, and reacted for 15 min. All reaction tubes were supplemented to a volume of 500 μl with 50 mM Tris-HCl buffer (50 mM Tris-HCl, 5 mM MgCl2·6H2O, 1 mM EDTA, 0.5% (WN) BSA, 0.1% NaN3, pH 7.4). A reaction was carried out at 37° C. for 15 min. A type-49 glass fiber filter membrane was prepared and a sample was applied at the same time. The filter membrane was placed in a multi-head cell collector, and the reaction system was subjected to suction filtration under negative pressure and washed with an ice-cold 50 mM Tris-HCl buffer, 10 ml each time, for a total of 5 times. After suction drying, 1 ml of scintillation liquid was added to the filter membrane, the filter membrane was placed on the shaker for shaking for 1.5 h and then placed in the liquid scintillation counter on the next day to determine the radioactive intensity.
In an agonistic experiment, maximum [^3H]-MK-801 binding %=((tested compounds cpm−5,7 dichlorokynurenic acid cpm)/(1 mM glycine cpm−5,7 dichlorokynurenic acid cpm))×100%.

[3] = In-vivo metabolism (pharmacokinetic) study in rats, oral / tail intravenous; details: rat, plasma; for bioavailability: male, SD, oral 10 mg/kg vs intravenous 1 mg/kg, rats; for AUC(0-t) / Cmax: male SD rats
Protocol: The pharmacokinetic parameters such as exposure of plasma concentrations of the compounds of examples were evaluated by oral/tail intravenous injection model tests in rats in order to evaluate the in-vivo metabolic stability in rats.
The male SD rats weighing 200±20 g and being SPF grade were used in this experiment and purchased from SPF.
Preparation of intravenous solution: 1 mg of each tested medicine was weighed accurately, and a volume was metered to 5 mL with 0.9% sodium chloride solution to prepare 0.2 mg/mL. A dose volume was 1 mL for per 200 g of weight, and the dose was 1 mg for per 1 kg of weight based on the concentration conversion.
Preparation of intragastric solution: 10 mg of each tested medicine was accurately weighed, and a volume was metered to 10 mL with 0.9% sodium chloride solution to prepare 1 mg/mL of the solution. A dose volume was 2 mL for per 200 g of weight, and the dose was 10 mg for per 1 kg of weight based on the concentration conversion.
Rats were randomly divided into 8 groups, 6 rats were in each group, oral gavage administration and tail intravenous administration were performed according to the above doses. About 0.2 mL of orbital blood was collected before administration and at 2 min, 5 min, 15 min, 30 min, 1 h, 2 h, 3 h, 4 h and 6 h after administration, respectively, and centrifuged at 3000 rpm for 10 min at 4° C., and a supernatant was taken for LC/MS/MS determination. A DAS pharmacokinetics program was used to analyze the measured data and calculate the main pharmacokinetic parameters.

[4] = test system: rats; assay: Forced swimming test in rats; type: in vivo; details: Rattus norvegicus, Po
Protocol: Pharmacodynamic evaluation was performed by the forced swimming tests in rats. The experimental animals were male SD rats weighing 150 g-180 g and being SPF grade, and acclimated for one week after purchase, and then subjected to forced swimming tests, the rats need be fasted for 12 hours before the tests. The compounds of examples were dissolved with normal saline, and blank control group (normal saline) and example compound administration group were established. 8-10 rats were provided for each group. On the day before the tests, the rats were placed in a glass cylinder with a height of 40 cm, an inner diameter of 18 cm, and a water depth of 23 cm for pre-swimming for 15 min, and a water temperature was 28° C. After the pre-swimming the rats were removed, wiped with a dry cloth, and dried with an electrical heater, then returned to a rearing cage, and administered. A formal forced swimming test was performed on the next day for a total of 5 min. The accumulated immobility time within 5 min was recorded, and a second forced swimming test was performed on the seventh day; the criteria for determining immobility were that the rats stopped struggling in the water, were in a floating state, and had only slight limb movements to keep the head floating on the water surface. The results are shown in Table 4, and the experimental data were statistically analyzed by GraphPad Prism 5.0 software.

Compound: Cl.N[C@@H](CO)C(=O)N1CC2(C1)SCCN2Cc1ccccc1 [A-195]
IC50 [1]: 0.43 nM | Maximum agonistic efficacy (%) [2]: 46%

Compound: CC(C)C(=O)N1CCSC12CCN(C(=O)[C@@H](N)[C@@H](C)O)CC2.Cl [A-114]
IC50 [1]: 0.89 nM | Maximum agonistic efficacy (%) [2]: 35%

Compound: Cl.N#C[C@@H]1CSC2(CN(C(=O)[C@@H](N)CO)C2)N1 [A-303]
IC50 [1]: 0.24 nM | Maximum agonistic efficacy (%) [2]: 35%

Compound: C[C@@H](O)[C@H](N)C(=O)N1CCC2(CC1)N[C@H](C(=O)N1CCSCC1)CS2.Cl [A-449]
IC50 [1]: 0.47 nM | Maximum agonistic efficacy (%) [2]: 38%

Compound: C[C@@H](O)[C@H](N)C(=O)N1CCC2(CC1)N[C@H](C(N)=O)CS2.Cl [A-274]
IC50 [1]: 0.28 nM | Maximum agonistic efficacy (%) [2]: 55% | bioavailability [3]: 62.7% | AUC(0-t) ([3]; Intravenous injection, 1 mg/kg): 1630 ng·h/mL | Cmax ([3]; Intravenous injection, 1 mg/kg): 2480 ng/mL | AUC(0-t) ([3]; Oral, 10 mg/kg): 3350 ng·h/mL | Cmax ([3]; Oral, 10 mg/kg): 1880 ng/mL

Compound: C[C@@H](O)[C@H](N)C(=O)N1CCCC2(C1)N[C@H](C(N)=O)CS2.Cl (stereo partly drawn) [A-282]
IC50 [1]: 0.32 nM | Maximum agonistic efficacy (%) [2]: 35%

Compound: C[C@@H](O)[C@H](N)C(=O)N1CCCC2(C1)NCCS2.Cl (stereo partly drawn) [A-048]
IC50 [1]: 0.55 nM | Maximum agonistic efficacy (%) [2]: 38%

Compound: C[C@@H](O)[C@H](N)C(=O)N1CC2(C1)NCCS2.Cl [A-006]
IC50 [1]: 0.44 nM | inhibition in vivo at 0.1 mg/kg ([4]; 48 h, Day 2, *P<0.05, **P<0.01 compared with the control group, read-out: Reduction percentage (%) of floating time, Day 2): 36.4% | inhibition in vivo at 0.1 mg/kg ([4]; 168 h, Day 7, *P<0.05, **P<0.01 compared with the control group, read-out: Reduction percentage (%) of floating time, Day 7): 22.2% | Maximum agonistic efficacy (%) [2]: 32% | bioavailability [3]: 21.2% | AUC(0-t) ([3]; Intravenous injection, 1 mg/kg): 16500 ng·h/mL | Cmax ([3]; Intravenous injection, 1 mg/kg): 11600 ng/mL | AUC(0-t) ([3]; Oral, 10 mg/kg): 35000 ng·h/mL | Cmax ([3]; Oral, 10 mg/kg): 18400 ng/mL

IC50 [1]: 1.89 nM | Maximum agonistic efficacy (%) [2]: 35%
Compound: CC(=O)N1CCCC2(C1)SCCN2C(=O)C(C)C (stereo not drawn) [A-119]
